ChEMBL document CHEMBL6182924, “Discovery of a Novel and Potent MET Transcription Inhibitor Targeting Promoter G-Quadruplex for the Treatment of NSCLC” (J Med Chem, 2025)
The source made the active and inactive calls. The calls are words filed in the database; no cut-off is given here.

How the values were obtained:
A549 [1] = assay: Antiproliferative activity against human A549 cells incubated for 3 days by CCK-8 assay; assay type: functional, cell-based; conditions: A549, 72 h
A549 [2] = assay: Downregulation of c-MYC expression in human A549 cells up to 2000 nM incubated for 72 hrs by Western blot analysis; assay type: functional, cell-based
A549 [3] = assay: Antitumor activity against human A549 cells xenografted in BALB/c mouse assessed as tumor growth inhibition at 20 mg/kg, po administered once a day and measured up to 24 days; assay type: functional; conditions: A549, 576 h, time <= 24 day, read-out: TGI
BaF3 [4] = assay: Antiproliferative activity against mouse BaF3 cells harboring TPR-MET […] mutant incubated for 24 hrs by CCK-8 assay; assay type: functional, cell-based; conditions: BaF3, 24 h
BaF3 [5] = assay: Antiproliferative activity against mouse BaF3 cells harboring TPR-MET D1228N mutant incubated for 24 hrs by CCK-8 assay; assay type: functional, cell-based; conditions: BaF3, 24 h
BaF3 [6] = assay: Antiproliferative activity against mouse BaF3 cells harboring TPR-MET L1195V mutant incubated for 24 hrs by CCK-8 assay; assay type: functional, cell-based; conditions: BaF3, 24 h
Quadruplex DNA = assay: Binding affinity to G-quadruplex DNA (unknown origin) at 5 uM by fluorescence quenching analysis; assay type: nucleic-acid assay

Row | Compound | IC50 (A549 [1]) | further results
1 | Oc1ccc(-c2ccc(-c3nc4c5cccnc5c5ncccc5c4[nH]3)o2)cc1 | 2.13 µM | 
2 | COc1cccc(C(=O)Nc2cccc(-c3cc4cccnc4c4ncccc34)c2)c1OC | 1.2 µM | 
3 | N#Cc1ccc(-c2ccc(-c3nc4c5cccnc5c5ncccc5c4[nH]3)o2)cc1 | 4.9 µM | 
4 | N#Cc1cccc(C(=O)Nc2cccc(-c3cc4cccnc4c4ncccc34)c2)c1 | 2.51 µM | 
5 | Brc1ccc(-c2nc3c4cccnc4c4ncccc4c3[nH]2)o1 | 4.47 µM | 
6 | O=C(Nc1cccc(-c2cc3cccnc3c3ncccc23)c1)c1ccccc1 | 1.79 µM | 
7 | O=C(Nc1cccc(-c2cc3cccnc3c3ncccc23)c1)c1ccc2nccnc2c1 | 0.8 µM | Activity (A549 [2]): Active
8 | Fc1cccc(-c2ccc(-c3nc4c5cccnc5c5ncccc5c4[nH]3)o2)c1 | 1.43 µM | 
9 | Cn1ccc(-c2csc(-c3nc4c5cccnc5c5ncccc5c4[nH]3)c2)n1 | 3.72 µM | 
10 | COc1cc2nccc(Oc3ccc(NC(=O)C4(C(=O)Nc5ccc(F)cc5)CC4)cc3)c2cc1OC [CABOZANTINIB] | 4.4 µM | inhibition in vivo at 20 mg/kg (A549 [3]): 51.7%; IC50 (BaF3 [4]): 3.98 µM; IC50 (BaF3 [5]): 5.84 µM; IC50 (BaF3 [6]): 0.92 µM
11 | c1cnc2c(c1)c1nc(-c3cc(-c4ccc5c(c4)OCCO5)cs3)[nH]c1c1cccnc12 | 0.89 µM | 
12 | c1cnc2c(c1)c1nc(-c3ccc(-c4ccc5c(c4)OCCO5)o3)[nH]c1c1cccnc12 | 0.71 µM | 
13 | COc1ccc(C(=O)Nc2cccc(-c3cc4cccnc4c4ncccc34)c2)cc1 | 1.13 µM | 
14 | N#Cc1cccc(-c2csc(-c3nc4c5cccnc5c5ncccc5c4[nH]3)c2)c1 | 6.53 µM | 
15 | Cn1ccc(-c2ccc(-c3nc4c5cccnc5c5ncccc5c4[nH]3)o2)n1 | 4.95 µM | 
16 | COc1cc(-c2nc3c4cccnc4c4ncccc4c3[nH]2)cc2c1OCO2 |  | Activity (Quadruplex DNA): Active
17 | Nc1cccc(-c2cc3cccnc3c3ncccc23)c1 |  | Activity (Quadruplex DNA): Active
18 | O=C(Nc1cccc(-c2cc3cccnc3c3ncccc23)c1)c1ccc(Cl)nc1 | 3.44 µM | 
19 | COc1cccc(-c2csc(-c3nc4c5cccnc5c5ncccc5c4[nH]3)c2)c1 | 0.58 µM | 
20 | Brc1csc(-c2nc3c4cccnc4c4ncccc4c3[nH]2)c1 | 6.1 µM | 
21 | O=[N+]([O-])c1ccc(-c2ccc(-c3nc4c5cccnc5c5ncccc5c4[nH]3)o2)cc1 | 3.2 µM | 
22 | N#Cc1cccc(-c2ccc(-c3nc4c5cccnc5c5ncccc5c4[nH]3)o2)c1 | 1.05 µM | 
